These results are taken from ChEMBL document CHEMBL1143344, “Novel DNA-directed alkylating agents: design, synthesis and potent antitumor effect of phenyl N-mustard-9-anilinoacridine conjugates via a carbamate or carbonate linker” (Bioorg Med Chem, 2009).

A word on the IC50: it is the concentration that gives 50% inhibition.

Active and inactive are the calls of the source. The calls are words filed in the database; no cut-off is given here.

The test system of assay [1] is CCRF-CEM. Put plainly: Cytotoxicity against human CCRF-CEM cells after 72 hrs by XTT assay. In kind it is functional, cell-based. (In general: Tetrazolium assays rely on reduction of a dye to a coloured formazan, in cell work by metabolically active cells.)
The subject of assay [2] is CCRF-CEM. The experiment in a line: Cytotoxicity against vinblastine-resistant human CCRF-CEM cells after 72 hrs by XTT assay. In kind it is functional, cell-based.
In assay [3] the test system is CCRF-CEM. The experiment in a line: Ratio of IC50 for taxol-resistant human CCRF-CEM cells to IC50 for human CCRF-CEM cells. Format: functional.
The test system of assay [4] is CCRF-CEM. Put plainly: Ratio of IC50 for vinblastine-resistant human CCRF-CEM cells to IC50 for human CCRF-CEM cells. Format: functional.
Assay [5] concerns MX1. Put plainly: Cytotoxicity against human MX1 cells after 72 hrs by SRB assay. Format: functional, cell-based. The conditions noted are these: MX1, 72 h. (Sulforhodamine B stains cellular protein and so reports cell mass.)
In assay [6] the test system is HCT-116. The experiment in a line: Cytotoxicity against human HCT116 cells after 72 hrs by SRB assay. In kind it is functional, cell-based. Conditions: HCT-116, 72 h.
Assay [7] relates to CCRF-CEM. Put plainly: Cytotoxicity against taxol-resistant human CCRF-CEM cells after 72 hrs by XTT assay. In kind it is functional, cell-based.
Assay [8] is described as follows: Cytotoxicity against human H1299 cells after 72 hrs by WST1 assay. Format: functional, cell-based. Conditions: NCI-H1299, 72 h.
Assay [9] deals with PC-3. The experiment in a line: Cytotoxicity against human PC3 cells after 72 hrs by WST1 assay. The conditions noted are these: PC-3, 72 h. Format: functional, cell-based.
Assay [10] in a line: Cytotoxicity against human CL1-0 cells after 72 hrs by WST1 assay. Format: functional, cell-based. The conditions noted are these: CL1-0, 72 h.
A short description of assay [11]: Cytotoxicity against human CL1-5 cells after 72 hrs by WST1 assay. The conditions noted are these: CL1-5, 72 h. In kind it is functional, cell-based.
Assay [12] deals with MCF7. Put plainly: Cytotoxicity against human MCF7 cells after 72 hrs by WST1 assay. Format: functional, cell-based. The conditions noted are these: MCF7, 72 h.
Assay [13] concerns MX1. The experiment in a line: Antitumor activity against human MX1 cells xenografted in athymic nude mouse assessed as total tumor remission at 40 mg/kg, iv administered q2d for 5 days measured after 20 days. Further details: dose 40 mg/kg. In kind it is functional, organism-based. For orientation: In xenograft studies the graft and the host belong to different species.
Assay [14] deals with MX1. The experiment in a line: Antitumor activity against human MX1 cells xenografted in athymic nude mouse assessed as total tumor remission at 100 mg/kg, iv administered qd for 6 days measured after 20 days. Further details: dose 100 mg/kg. Format: functional, organism-based.
Assay [15] has as its system MX1. Put plainly: Antitumor activity against human MX1 cells xenografted in athymic nude mouse assessed as total tumor remission at 100 mg/kg, iv administered qd for 6 days measured after 22 days. In kind it is functional, organism-based. The arrangement: dose 100 mg/kg.
Assay [16] concerns MX1. Put plainly: Antitumor activity against human MX1 cells xenografted in athymic nude mouse assessed as no tumor relapse at 100 mg/kg, iv administered qd for 6 days measured after 59 days. In kind it is functional, organism-based. Further details: dose 100 mg/kg.

In the case of `CC[C@]1(O)C[C@@H]2CN(CCc3c([nH]c4ccccc34)[C@@](C(=O)OC)(c3cc4c(cc3OC)N(C)[C@H]3[C@@](O)(C(=O)OC)[C@H](OC(C)=O)[C@]5(CC)C=CCN6CC[C@]43[C@@H]65)C2)C1` [VINBLASTINE], the IC50 in assay [1] (read-out: IC50) was 0.73 nM; in assay [2] it was 496 nM; in [5], 2.2 nM; in [6], 1.1 nM; in assay [7], 78 nM. Also, the results for the “Ratio IC50” value in [3] and in assay [4] were 106.2 and 679.5, respectively.
Regarding `Cc1ccc(NC(=O)Oc2ccc(N(CCCl)CCCl)cc2)cc1Nc1c2ccccc2nc2c(C)cccc12`, the IC50 in assay [1] (read-out: IC50) stood at 132 nM; in assay [2] it was 93 nM; in assay [5], 163 nM; in assay [6], 263 nM; in [8] it was 623 nM; in assay [9], 4470 nM. Besides, the IC50 in [10] turned out to be 4660 nM; in assay [11], 10600 nM; in assay [12] it was 5710 nM; in assay [7] it was 138 nM. For the same compound, the “Ratio IC50” value is 1.05 in assay [3] and 0.7 in assay [4].
As for `COc1ccc(NC(=O)Oc2ccc(N(CCCl)CCCl)cc2)cc1Nc1c2ccccc2nc2c(C)cccc12`, the IC50 came out at 205 nM in assay [1] (read-out: IC50); 110 nM in assay [2]; 338 nM in assay [5]; 841 nM in assay [6]; 210 nM in [7]. The “Ratio IC50” value was found to be 1 in [3] and 0.54 in [4].
`CCOC(=O)Nc1cc(COC(=O)Nc2ccc(N(CCCl)CCCl)cc2)cc(Nc2c3ccccc3nc3ccccc23)c1`: the IC50 in assay [1] (read-out: IC50) was 85 nM; in assay [5] it was 597 nM.
In the case of `COc1ccc(Nc2c3ccccc3nc3ccccc23)cc1NC(=O)Oc1ccc(N(CCCl)CCCl)cc1`, the IC50 in assay [1] (read-out: IC50) came out at 85 nM; in assay [2] it was 119 nM; in assay [5] it was 181 nM; in [6], 186 nM; in assay [7] it was 160 nM. The “Ratio IC50” value in [3] is listed as 1.9; in assay [4], 1.4.
Turning to `Cc1cccc2c(Nc3cc(CO)cc(NC(=O)Oc4ccc(N(CCCl)CCCl)cc4)c3)c3ccccc3nc12`, the half-inhibitory concentration (IC50) came to 67 nM in [1] (read-out: IC50); 127 nM in assay [2]; 84 nM in [5]; 438 nM in assay [6]; 457 nM in assay [8]; 5980 nM in [9]. Also, the IC50 was found to be 1870 nM in assay [10], 12600 nM in assay [11], 9010 nM in assay [12] and 97 nM in assay [7]. For the same compound, the “Ratio IC50” value in [3] came out at 1.4; in assay [4], 1.9. Moreover, the outcome in assay [13] was Active.
For `COc1ccc(Nc2c3ccccc3nc3c(C)cccc23)cc1NC(=O)Oc1ccc(N(CCCl)CCCl)cc1`, the IC50 in [1] (read-out: IC50) was found to be 24 nM; in [2], 190 nM; in assay [5], 138 nM; in assay [6] it was 238 nM; in [8], 357 nM; in [9], 1580 nM. For the same compound, the half-maximal inhibitory concentration (IC50) stood at 2250 nM in assay [10], 8850 nM in assay [11], 3430 nM in assay [12] and 27 nM in assay [7]. Further, the results for the “Ratio IC50” value in [3] and in [4] were 1.1 and 7.9, respectively.
With `OCc1cc(Nc2c3ccccc3nc3ccccc23)cc(OCCN(CCCl)CCCl)c1`, the IC50 in assay [2] turned out to be 34 nM; in assay [5], 3.5 nM; in assay [7], 7.5 nM. Besides, the “Ratio IC50” value is given as 1.1 in assay [3] and 4.9 in assay [4].
For the compound `CC(=O)O[C@H]1C(=O)[C@@]2(C)[C@H]([C@H](OC(=O)c3ccccc3)[C@]3(O)C[C@H](OC(=O)[C@H](O)[C@@H](NC(=O)c4ccccc4)c4ccccc4)C(C)=C1C3(C)C)[C@]1(OC(C)=O)CO[C@@H]1C[C@@H]2O` [PACLITAXEL], the IC50 in assay [1] turned out to be 3.1 nM; in assay [2], 1270 nM; in [5], 46 nM; in assay [6] it was 1.1 nM; in [7] it was 429 nM. The “Ratio IC50” value was 330 in assay [3] and 980 in [4].
Regarding `COc1cc(NC(=O)Oc2ccc(N(CCCl)CCCl)cc2)cc(Nc2c3ccccc3nc3ccccc23)c1`, the IC50 was found to be 200 nM in assay [1] (read-out: IC50); 108 nM in assay [2]; 340 nM in [5]; 1710 nM in [6]; 309 nM in [7]. Moreover, the entries for the “Ratio IC50” value in assay [3] and in assay [4] were 1.5 and 0.54, respectively. Further, the result in [14], in assay [15] and in assay [16] was Active.
In the case of `COc1ccc(NC(=O)Oc2ccc(N(CCCl)CCCl)cc2)cc1Nc1c2ccccc2nc2ccccc12`, the IC50 came to 541 nM in assay [1] (read-out: IC50); 254 nM in [2]; 1560 nM in assay [5]; 709 nM in [6]; 583 nM in assay [7]. Further, the “Ratio IC50” value in assay [3] came out at 1.08.
`Nc1cc(CO)cc(Nc2c3ccccc3nc3ccccc23)c1`: the 50% inhibitory concentration (IC50) was determined as 1600 nM in assay [2], 3.5 nM in assay [5] and 600 nM in assay [7]. Besides, the results for the “Ratio IC50” value in assay [3] and in assay [4] were 0.8 and 2.7, respectively.
As for `Cc1ccc(Nc2c3ccccc3nc3ccccc23)cc1NC(=O)Oc1ccc(N(CCCl)CCCl)cc1`, the concentration for half-maximal inhibition (IC50) in assay [1] (read-out: IC50) turned out to be 76 nM; in assay [2], 158 nM; in assay [5], 214 nM; in assay [6] it was 434 nM; in assay [7], 216 nM. Besides, the results for the “Ratio IC50” value in assay [3] and in assay [4] were 2.8 and 2.1, respectively.
As to `Cc1cccc2c(Nc3cc(COC(=O)Nc4ccc(N(CCCl)CCCl)cc4)cc(NC(=O)OC(C)(C)C)c3)c3ccccc3nc12`, the IC50 in assay [1] (read-out: IC50) is 750 nM; in [2], 1420 nM; in assay [5], 5930 nM; in assay [6], 2400 nM; in assay [7], 3360 nM. For the same compound, the “Ratio IC50” value is recorded as 4.5 in assay [3] and 1.9 in [4].
Turning to `Cc1c(NC(=O)Oc2ccc(N(CCCl)CCCl)cc2)cccc1Nc1c2ccccc2nc2c(C)cccc12`, the IC50 in assay [1] (read-out: IC50) was 160 nM; in [2], 142 nM; in [5], 181 nM; in assay [6], 320 nM; in assay [7], 174 nM. In addition, the “Ratio IC50” value in [3] is recorded as 1.09; in assay [4], 0.89.
For the compound `CC(C)OC(=O)Nc1cc(COC(=O)Nc2ccc(N(CCCl)CCCl)cc2)cc(Nc2c3ccccc3nc3ccccc23)c1`, the IC50 in assay [1] (read-out: IC50) came to 189 nM; in assay [2], 753 nM; in assay [5], 1130 nM; in assay [6], 301 nM; in [8] it was 9170 nM; in assay [9], 16000 nM. The IC50 in [10] was found to be 4000 nM; in assay [11], 6630 nM; in assay [12], 7010 nM; in assay [7] it was 648 nM. Further, the figures for the “Ratio IC50” value in assay [3] and in [4] were 3.4 and 4, respectively.
